Measurements: publication PMC10732398 (PLOS Pathogens, 2023)

Test system: ⍺4β7 on RPMI8866 cells
Experiment: Flow cytometry: ligand staining of ⍺4β7-expressing cells in buffers with different divalent cations
Format: binding, human
Conditions: absence of divalent cations (0.1 mM EDTA)
From the text: Fig 1 Binding of soluble CD4 to ⍺4β7 on CD4^+ T cells. (A) Schematic of D1D2-Ig⍺tp. (B) Flow-cytometry histogram of PE-conjugated D1D2-Ig⍺tp staining of CD4^+ T cells alone (blue) or in the presence of either the anti ⍺4 mAb 2B4 (green) or an irrelevant mAb (black-dashed). Cells stained with PE-conjugated MicA-Ig⍺tp (red), along with unstained cells (grey) are included. X-axis indicates geometric mean fluorescence intensity (gMFI). (C) 293T cells untransfected or co-transfected with ⍺4 and β7 expression vectors stained with either PE-D1D2-Ig⍺tp or PE-MAdCAM-Ig in the absence or presence of the ⍺4 antagonist FG. Y-axis indicates gMFI. (D) CD4^+ T cells stained with anti CD45RO (x-axis) anti β7 (y-axis) (left), or with anti CD45RO (x-axis) and D1D2-Ig⍺tp (y-axis) (right). % cells in each quadrant, as indicated. (E) CD4^+ T cells stained as in B, with lower MW forms of oligomerized D1D2-Ig⍺tp. Left Y-axis indicates gMFI (bars), right Y-axis indicates relative MW (kDa) (•). […]
Cells were stained with fluoresceine conjugated mAbs or recombinant proteins using standard procedures preceded by Fc receptor blocking with human IgG. […] Data were acquired using a FACSCanto II (BD Biosciences) and analyzed with FlowJo software (BD Biosciences). […]

Question: “MAdCAM-Ig: recombinant MAdCAM-1 Ig fusion, R&D Systems [reference compound]” was tested. Which “binding to ⍺4β7 (in words)” value did it give?
Answer: Its value is “failed to bind”.
